Assay results reported in the supplement of paper PMC10307832.

How the values were obtained:
Assay in all cases: relative viability (nuclei count vs DMSO), 5 days (fraction); higher = more cells survive
COR-L23 = test system: COR-L23
Procedure, shortened: (§1)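 Lung cancer cell lines in 1536-well plates got either a single drug or a fixed anchor-drug dose together with five library-drug doses (not always all listed) in √10 steps, by pin tool, on the day after seeding. Nuclei were counted after 5 days, and relative viability is the treated-to-vehicle ratio of nuclei counts. Values are medians of duplicate plates.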

HARA = test system: HARA
Procedure, shortened: as §1

SK-LU-1 = test system: SK-LU-1
Procedure, shortened: as §1

COR-L 105 = test system: COR-L 105
Procedure, shortened: as §1

NCI-H1792 = test system: NCI-H1792
Procedure, shortened: as §1

LCLC-103H = test system: LCLC-103H
Procedure, shortened: as §1

HCC-366 = test system: HCC-366
Procedure, shortened: as §1

EPLC-272H = test system: EPLC-272H
Procedure, shortened: as §1

NCI-H1975 = test system: NCI-H1975
Procedure, shortened: as §1

NCI-H358 = test system: NCI-H358
Procedure, shortened: as §1

NCI-H1944 = test system: NCI-H1944
Procedure, shortened: as §1

HCC-78 = test system: HCC-78
Procedure, shortened: as §1

NCI-H727 = test system: NCI-H727
Procedure, shortened: as §1

NCI-H2085 = test system: NCI-H2085
Procedure, shortened: as §1

NCI-H2405 = test system: NCI-H2405
Procedure, shortened: as §1

NCI-H2023 = test system: NCI-H2023
Procedure, shortened: as §1

HCC-15 = test system: HCC-15
Procedure, shortened: as §1

HCC-44 = test system: HCC-44
Procedure, shortened: as §1

NCI-H1395 = test system: NCI-H1395
Procedure, shortened: as §1

NCI-H661 = test system: NCI-H661
Procedure, shortened: as §1

UMC-11 = test system: UMC-11
Procedure, shortened: as §1

NCI-H1437 = test system: NCI-H1437
Procedure, shortened: as §1

HCC-827 = test system: HCC-827
Procedure, shortened: as §1

`O=C(O)CCCCC(CCSCc1ccccc1)SCc1ccccc1` (centres undefined) [CPI-613] + CS(=O)(=O)N1CCN(Cc2cc3nc(-c4cccc5[nH]ncc45)nc(N4CCOCC4)c3s2)CC1 [Pictilisib] (partner 1 µM) gave a relative viability (COR-L23; first compound 5 µM) of 0.639, a relative viability (COR-L23; first compound 15.81 µM) of 0.689 and a relative viability (COR-L23; first compound 50 µM) of 0.621. The relative viability (COR-L23; first compound 158.11 µM) was 0.393, the relative viability (COR-L23; first compound 500 µM) was 0.007 and the relative viability (HARA; first compound 5 µM) was 0.474. For the same molecule, the relative viability (HARA; first compound 15.81 µM) was 0.409, the relative viability (HARA; first compound 50 µM) was 0.281 and the relative viability (HARA; first compound 158.11 µM) was 0.242. The relative viability (HARA; first compound 500 µM) was 0.084, the relative viability (SK-LU-1; first compound 5 µM) was 0.533 and the relative viability (SK-LU-1; first compound 15.81 µM) was 0.428. It also gave a relative viability (SK-LU-1; first compound 50 µM) of 0.49, a relative viability (SK-LU-1; first compound 158.11 µM) of 0.46 and a relative viability (SK-LU-1; first compound 500 µM) of 0.264. The relative viability (COR-L 105; first compound 5 µM) was 0.399, the relative viability (COR-L 105; first compound 15.81 µM) was 0.377 and the relative viability (COR-L 105; first compound 50 µM) was 0.38. It also gave a relative viability (COR-L 105; first compound 158.11 µM) of 0.328, a relative viability (COR-L 105; first compound 500 µM) of 0.288 and a relative viability (NCI-H1792; first compound 5 µM) of 0.29. For the same molecule, the relative viability (NCI-H1792; first compound 15.81 µM) was 0.229, the relative viability (NCI-H1792; first compound 50 µM) was 0.272 and the relative viability (NCI-H1792; first compound 158.11 µM) was 0.23. The relative viability (NCI-H1792; first compound 500 µM) was 0.207, the relative viability (LCLC-103H; first compound 5 µM) was 0.55 and the relative viability (LCLC-103H; first compound 15.81 µM) was 0.578. The relative viability (LCLC-103H; first compound 50 µM) was 0.581, the relative viability (LCLC-103H; first compound 158.11 µM) was 0.539 and the relative viability (LCLC-103H; first compound 500 µM) was 0.653. The relative viability (HCC-366; first compound 5 µM) was 0.149, the relative viability (HCC-366; first compound 15.81 µM) was 0.144 and the relative viability (HCC-366; first compound 50 µM) was 0.154. It also gave a relative viability (HCC-366; first compound 158.11 µM) of 0.12, a relative viability (HCC-366; first compound 500 µM) of 0.157 and a relative viability (EPLC-272H; first compound 5 µM) of 0.251. The relative viability (EPLC-272H; first compound 15.81 µM) was 0.28, the relative viability (EPLC-272H; first compound 50 µM) was 0.369 and the relative viability (EPLC-272H; first compound 158.11 µM) was 0.246. The relative viability (EPLC-272H; first compound 500 µM) was 0.339, the relative viability (NCI-H1975; first compound 5 µM) was 0.292 and the relative viability (NCI-H1975; first compound 15.81 µM) was 0.225. It also gave a relative viability (NCI-H1975; first compound 50 µM) of 0.314, a relative viability (NCI-H1975; first compound 158.11 µM) of 0.258 and a relative viability (NCI-H1975; first compound 500 µM) of 0.0574. For the same molecule, the relative viability (NCI-H358; first compound 5 µM) was 0.355, the relative viability (NCI-H358; first compound 15.81 µM) was 0.292 and the relative viability (NCI-H358; first compound 50 µM) was 0.278. The relative viability (NCI-H358; first compound 158.11 µM) was 0.255, the relative viability (NCI-H358; first compound 500 µM) was 0.0276 and the relative viability (NCI-H1944; first compound 5 µM) was 0.336. It also gave a relative viability (NCI-H1944; first compound 15.81 µM) of 0.371, a relative viability (NCI-H1944; first compound 50 µM) of 0.351 and a relative viability (NCI-H1944; first compound 158.11 µM) of 0.347. For the same molecule, the relative viability (NCI-H1944; first compound 500 µM) was 0.332, the relative viability (HCC-78; first compound 5 µM) was 0.203 and the relative viability (HCC-78; first compound 15.81 µM) was 0.167. It also gave a relative viability (HCC-78; first compound 158.11 µM) of 0.156, a relative viability (HCC-78; first compound 500 µM) of 0.206 and a relative viability (NCI-H727; first compound 5 µM) of 0.359. The relative viability (NCI-H727; first compound 15.81 µM) was 0.348, the relative viability (NCI-H727; first compound 50 µM) was 0.348 and the relative viability (NCI-H727; first compound 158.11 µM) was 0.33. The relative viability (NCI-H727; first compound 500 µM) was 0.0223, the relative viability (NCI-H2085; first compound 5 µM) was 0.505 and the relative viability (NCI-H2085; first compound 15.81 µM) was 0.492. It also gave a relative viability (NCI-H2085; first compound 50 µM) of 0.4, a relative viability (NCI-H2085; first compound 158.11 µM) of 0.383 and a relative viability (NCI-H2085; first compound 500 µM) of 0.343. For the same molecule, the relative viability (NCI-H2405; first compound 5 µM) was 0.493, the relative viability (NCI-H2405; first compound 15.81 µM) was 0.331 and the relative viability (NCI-H2405; first compound 50 µM) was 0.425. It also gave a relative viability (NCI-H2405; first compound 158.11 µM) of 0.388, a relative viability (NCI-H2405; first compound 500 µM) of 0.421 and a relative viability (NCI-H2023; first compound 5 µM) of 0.233. It also gave a relative viability (NCI-H2023; first compound 15.81 µM) of 0.218, a relative viability (NCI-H2023; first compound 50 µM) of 0.231 and a relative viability (NCI-H2023; first compound 158.11 µM) of 0.0548. It also gave a relative viability (NCI-H2023; first compound 500 µM) of 0.0183, a relative viability (HCC-15; first compound 5 µM) of 0.604 and a relative viability (HCC-15; first compound 15.81 µM) of 0.664. The relative viability (HCC-15; first compound 50 µM) was 0.603, the relative viability (HCC-15; first compound 158.11 µM) was 0.629 and the relative viability (HCC-15; first compound 500 µM) was 0.238. For the same molecule, the relative viability (HCC-44; first compound 5 µM) was 0.546, the relative viability (HCC-44; first compound 15.81 µM) was 0.611 and the relative viability (HCC-44; first compound 50 µM) was 0.589. The relative viability (HCC-44; first compound 158.11 µM) was 0.469, the relative viability (HCC-44; first compound 500 µM) was 0.0534 and the relative viability (NCI-H1395; first compound 5 µM) was 0.623. It also gave a relative viability (NCI-H1395; first compound 15.81 µM) of 0.782, a relative viability (NCI-H1395; first compound 50 µM) of 0.619 and a relative viability (NCI-H1395; first compound 158.11 µM) of 0.645. It also gave a relative viability (NCI-H1395; first compound 500 µM) of 0.51, a relative viability (NCI-H661; first compound 5 µM) of 0.36 and a relative viability (NCI-H661; first compound 15.81 µM) of 0.428. The relative viability (NCI-H661; first compound 50 µM) was 0.442, the relative viability (NCI-H661; first compound 158.11 µM) was 0.355 and the relative viability (NCI-H661; first compound 500 µM) was 0.367. The relative viability (UMC-11; first compound 5 µM) was 0.804, the relative viability (UMC-11; first compound 15.81 µM) was 0.698 and the relative viability (UMC-11; first compound 50 µM) was 0.496. For the same molecule, the relative viability (UMC-11; first compound 158.11 µM) was 0.642, the relative viability (UMC-11; first compound 500 µM) was 0.104 and the relative viability (NCI-H1437; first compound 5 µM) was 0.433. The relative viability (NCI-H1437; first compound 15.81 µM) was 0.286, the relative viability (NCI-H1437; first compound 50 µM) was 0.435 and the relative viability (NCI-H1437; first compound 158.11 µM) was 0.181. For the same molecule, the relative viability (NCI-H1437; first compound 500 µM) was 0.0176, the relative viability (HCC-827; first compound 5 µM) was 0.94 and the relative viability (HCC-827; first compound 15.81 µM) was 0.964. For the same molecule, the relative viability (HCC-827; first compound 50 µM) was 0.887, the relative viability (HCC-827; first compound 158.11 µM) was 0.833 and the relative viability (HCC-827; first compound 500 µM) was 0.79.
